Conditions: Liquid, Hot wire method

FC(F)(F)/C=C/Cl [(E)-1-chloro-3,3,3-trifluoroprop-1-ene]
Conditions	thermal conductivity [W/m/K]
222.73 K, 17781 kPa	0.1124
222.75 K, 44676 kPa	0.1192
222.77 K, 8729 kPa	0.1105
222.79 K, 453 kPa	0.107
222.79 K, 26430 kPa	0.1147
222.79 K, 35560 kPa	0.1173
222.86 K, 17785 kPa	0.112
222.91 K, 8723 kPa	0.1098
222.91 K, 65386 kPa	0.1248
222.92 K, 456 kPa	0.1067
222.97 K, 54368 kPa	0.122
223.03 K, 44680 kPa	0.1196
223.06 K, 65383 kPa	0.1239
223.07 K, 35560 kPa	0.1178
223.11 K, 26433 kPa	0.1152
223.11 K, 54368 kPa	0.122
223.14 K, 17782 kPa	0.1124
223.17 K, 44685 kPa	0.1194
223.21 K, 8729 kPa	0.1098
223.22 K, 35566 kPa	0.1174
223.23 K, 454 kPa	0.1071
223.26 K, 26433 kPa	0.1147
223.3 K, 17785 kPa	0.112
223.34 K, 65385 kPa	0.1243
223.36 K, 8728 kPa	0.1097
223.39 K, 453 kPa	0.1069
223.39 K, 54369 kPa	0.1224
223.46 K, 44687 kPa	0.1198
223.5 K, 65379 kPa	0.1241
223.51 K, 35560 kPa	0.1174
223.56 K, 26434 kPa	0.1151
223.56 K, 54369 kPa	0.1215
223.6 K, 17788 kPa	0.1125
223.63 K, 44686 kPa	0.1196
223.67 K, 8730 kPa	0.1101
223.68 K, 35563 kPa	0.1172
223.71 K, 455 kPa	0.1073
223.73 K, 26431 kPa	0.1148
223.78 K, 17788 kPa	0.1121
223.79 K, 65376 kPa	0.1246
223.85 K, 54372 kPa	0.122
223.86 K, 8734 kPa	0.1093
223.89 K, 457 kPa	0.1068
223.93 K, 44690 kPa	0.1197
223.98 K, 35565 kPa	0.1178
223.98 K, 65378 kPa	0.124
224.04 K, 26437 kPa	0.1151
224.05 K, 54371 kPa	0.1216
224.1 K, 17783 kPa	0.1124
224.13 K, 44694 kPa	0.1195
224.18 K, 8734 kPa	0.1094
224.19 K, 35567 kPa	0.1173
224.23 K, 457 kPa	0.107
224.25 K, 26439 kPa	0.1146
224.31 K, 17787 kPa	0.1119
224.39 K, 8734 kPa	0.1092
224.45 K, 456 kPa	0.1066
241.66 K, 13434 kPa	0.1054
241.67 K, 7098 kPa	0.1036
241.69 K, 586 kPa	0.1011
241.75 K, 13448 kPa	0.1051
241.78 K, 7107 kPa	0.1033
241.79 K, 578 kPa	0.1008
241.92 K, 53262 kPa	0.1169
241.93 K, 63858 kPa	0.1199
241.94 K, 36063 kPa	0.1121
241.94 K, 43857 kPa	0.1153
241.99 K, 28061 kPa	0.1109
242.03 K, 20422 kPa	0.1077
242.03 K, 53260 kPa	0.1171
242.03 K, 63849 kPa	0.1192
242.04 K, 43848 kPa	0.114

Reference: the NIST ThermoML archive (doi:10.1021/acs.jced.7b00106)
